According to PubChem BioAssay (NCI):
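Tested at 5 concentrations; 48 h exposure; 96-well plates; endpoints linearly interpolated, else capped at highest concentration. Here, GI50 denotes the concentration required for 50% inhibition of growth. At the TGI there is no net growth.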

Columns and labels:
Experiment in all cases: NCI-60 cell line screen, 48 h
OVCAR-4 ovarian = system: OVCAR-4 ovarian
HCT-116 colon = system: HCT-116 colon
RXF 393 renal = system: RXF 393 renal
A549 NSCLC = system: A549 NSCLC
HL-60(TB) leukemia = system: HL-60(TB) leukemia
K-562 leukemia = system: K-562 leukemia
SK-MEL-28 melanoma = system: SK-MEL-28 melanoma
NCI/ADR-RES ovarian = system: NCI/ADR-RES ovarian
UACC-62 melanoma = system: UACC-62 melanoma
MDA-N = system: MDA-N

| SMILES | TGI (OVCAR-4 ovarian) [µM] | TGI (HCT-116 colon) [µM] | TGI (RXF 393 renal) [µM] | TGI (A549 NSCLC) [µM] | TGI (HL-60(TB) leukemia) [µM] | TGI (K-562 leukemia) [µM] | TGI (SK-MEL-28 melanoma) [µM] | TGI (NCI/ADR-RES ovarian) [µM] | TGI (UACC-62 melanoma) [µM] | TGI (MDA-N) [µM] | GI50 (OVCAR-4 ovarian) [µM] | GI50 (HCT-116 colon) [µM] | GI50 (RXF 393 renal) [µM] | GI50 (A549 NSCLC) [µM] | GI50 (HL-60(TB) leukemia) [µM] | GI50 (K-562 leukemia) [µM] | GI50 (SK-MEL-28 melanoma) [µM] | GI50 (NCI/ADR-RES ovarian) [µM] | GI50 (UACC-62 melanoma) [µM] |
| --- | --- | --- | --- | --- | --- | --- | --- | --- | --- | --- | --- | --- | --- | --- | --- | --- | --- | --- | --- |
| O=C(Nc1ccccc1C(=O)NCc1ccccc1)/C(=C/c1ccccc1)NC(=O)c1ccccc1 | > 100 | > 100 | > 100 | > 100 | > 100 | > 100 | > 100 | > 100 | > 100 |  |  |  |  |  |  |  |  |  |  |
| COc1ccc2cc(CNCCCCCCNCc3ccc4cc(OC)ccc4c3)ccc2c1 |  | 0.324 | 3.07 | 3.44 | 0.396 |  | 1.42 | 2.74 | 2.8 | 0.36 |  |  |  |  |  |  |  |  |  |
| COc1ccc2[nH]c(O)c(/C=c3/cc4c(c(-c5ccc(F)c(OC)c5)n3)=Nc3ccccc3-4)c2c1 | 16.3 | 3.37 | 3.01 | 19.3 | 35.1 | 10.2 | 4.51 | 11.2 | 3.16 |  | 3.53 | 1.82 | 1.53 | 4.37 | 14.4 | 3.16 | 2.06 | 2.56 | 1.7 |
| Cn1c(=O)oc2nc(-c3ccccc3)cc(C(F)(F)F)c21 | > 100 | > 100 |  | > 100 |  |  | > 100 | > 100 | > 100 | > 100 |  |  |  |  |  |  |  |  |  |
| CCCCCCCCCCCCCCCCCCNc1nc(=O)n(C2CC(O)C(COP(=O)(O)O)O2)cc1F (stereo not given) | > 100 | > 100 | > 100 | > 100 |  | > 100 | > 100 | > 100 | > 100 | > 100 |  |  |  |  |  |  |  |  |  |
| CCOP(=O)(OCC)/C(=C/c1cccs1)CC(C)=O | > 100 | > 100 | > 100 | > 100 |  | > 100 | > 100 | > 100 | > 100 | > 100 |  |  |  |  |  |  |  |  |  |
| Cc1ccc(S(=O)(=O)Nc2nnc(S(N)(=O)=O)s2)cc1 | > 100 | > 100 | > 100 | > 100 |  | > 100 | > 100 | > 100 | > 100 | > 100 |  |  |  |  |  |  |  |  |  |
| COc1cccc(N[C@@H]2c3cc4c(cc3C(c3cc(OC)c(O)c(OC)c3)[C@H]3C(=O)OCC32)OCO4)c1 (stereo not given in full) | 87.9 | 18.7 | 7.12 | 2.14 | 0.487 | 14.1 | > 61.2 | > 70.2 | 2.83 |  |  |  |  |  |  |  |  |  |  |
| CCN(CC)C(=S)SS(=O)(=O)c1cccc(N)c1 | > 100 | > 100 | > 100 | > 100 |  | > 100 | > 100 | > 100 | > 100 | > 100 |  |  |  |  |  |  |  |  |  |
| Nc1nc(Cl)cc(NC23CC4CC(CC(C4)C2)C3)n1 | > 100 | > 100 | > 100 | > 100 |  | > 100 | > 100 | > 100 | > 100 | > 100 |  |  |  |  |  |  |  |  |  |
| C=CCOn1c(C=C)nc2ccc(C)cc21 | > 100 | 24.4 |  | 68.5 | 22.2 | 55.3 | 38 | > 100 | 26.8 | 35.7 |  |  |  |  |  |  |  |  |  |
